{"source": "patent US20230127008A1", "about": "“STAT3-TARGETED BASE EDITOR THERAPEUTICS FOR THE TREATMENT OF MELANOMA AND OTHER CANCERS” (The Broad Institute, Inc., priority 2020, published 2023)", "key": {"[1]": {"test_system": "DNA", "conditions": "SpCas9 mutation relative to SEQ ID NO: 74; UniProtKB-Q99ZW2 entry; cited from earlier work"}, "[2]": {"test_system": "STAT3", "assay": "STAT3 reporter signal after STAT3 inhibitor or base editor treatment (FIGS. 3, 4, 5)", "assay_type": "cell-based"}, "[3]": {"test_system": "STAT3-dependent breast cancer cells", "conditions": "10 μM; cited from earlier work"}, "[4]": {"molecular_target": "STAT3 SH2 domain (Homo sapiens, UniProt P40763)", "sequence (P40763 whole entry, the tested form may be a part)": "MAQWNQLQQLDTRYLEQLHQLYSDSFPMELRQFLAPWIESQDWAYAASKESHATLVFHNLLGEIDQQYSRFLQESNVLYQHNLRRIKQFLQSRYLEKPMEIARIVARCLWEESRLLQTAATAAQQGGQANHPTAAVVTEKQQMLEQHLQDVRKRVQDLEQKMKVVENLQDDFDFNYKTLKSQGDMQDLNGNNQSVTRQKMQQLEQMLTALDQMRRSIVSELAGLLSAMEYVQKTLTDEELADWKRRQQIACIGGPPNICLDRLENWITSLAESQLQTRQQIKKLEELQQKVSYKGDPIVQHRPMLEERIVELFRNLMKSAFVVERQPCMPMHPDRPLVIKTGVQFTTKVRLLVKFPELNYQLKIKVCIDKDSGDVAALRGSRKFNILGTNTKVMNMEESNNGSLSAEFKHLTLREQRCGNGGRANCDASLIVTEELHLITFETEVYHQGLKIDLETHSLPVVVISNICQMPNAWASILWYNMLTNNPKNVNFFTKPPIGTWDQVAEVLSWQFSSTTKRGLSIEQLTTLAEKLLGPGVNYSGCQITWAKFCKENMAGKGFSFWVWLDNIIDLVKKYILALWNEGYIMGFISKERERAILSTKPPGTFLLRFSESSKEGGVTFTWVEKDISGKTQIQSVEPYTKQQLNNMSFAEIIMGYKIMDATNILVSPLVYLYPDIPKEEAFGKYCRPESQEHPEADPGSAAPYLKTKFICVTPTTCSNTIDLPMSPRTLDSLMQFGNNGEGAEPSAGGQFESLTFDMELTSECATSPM", "conditions": "37° C.; cited from earlier work"}, "[5]": {"test_system": "STAT3", "assay": "STAT3 reporter system (STAT3 signal)", "assay_type": "cell-based"}, "[6]": {"test_system": "DNA", "assay": "A to G editing on DNA by ecTadA mutant-nCas9 constructs (mammalian construct)", "assay_type": "cell-based"}}, "note": "pIC50: −log10 of the molar value.", "data": [{"molecule": "1099-1368 deletion: SpCas9 mutation relative to canonical SpCas9, SEQ ID NO: 74", "values": [{"measurement": "Function/Characteristic (as reported)", "setting": "[1]", "result": "No nuclease activity"}]}, {"molecule": "O=[N+]([O-])c1ccc2c(c1)S(=O)(=O)C=C2", "note": "[Stattic, stattic]", "values": [{"measurement": "STAT3 signal over time", "setting": "[2]", "result": "produces an effect that does not last over time"}, {"measurement": "STAT3-driven signals", "setting": "[2]; different concentrations", "result": "reduce STAT3-driven signals"}, {"measurement": "apoptosis", "setting": "[3]", "result": "induce apoptosis"}, {"measurement": "pIC50", "setting": "[4]", "result": 5.29}, {"measurement": "inhibition of STAT3", "setting": "[5]; STAT3 inhibitor at different concentrations, FIG. 3", "result": "inhibition of STAT3"}, {"measurement": "STAT3 signal over time", "setting": "[5]; extension of the graph of FIG. 3, FIG. 5", "result": "does not lead to a durable effect"}]}, {"molecule": "H840A: SpCas9 mutation relative to canonical SpCas9, SEQ ID NO: 74", "values": [{"measurement": "Function/Characteristic (as reported)", "setting": "[1]", "result": "Nickase mutant which cleaves the non-"}]}, {"molecule": "ecTadA(D108G)-XTEN-nCas9-NLS: ABE fusion protein, SEQ ID NO: 155", "values": [{"measurement": "activity on DNA, A to G editing", "setting": "[6]", "result": "ecTadA(D108G)-XTEN-nCas9-NLS: (mammalian construct, active on DNA, A to G"}]}, {"molecule": "ecTadA(D108N)-XTEN-nCas9-NLS: ABE fusion protein, SEQ ID NO: 154", "values": [{"measurement": "activity on DNA, A to G editing", "setting": "[6]", "result": "ecTadA(D108N)-XTEN-nCas9-NLS: (mammalian construct, active on DNA, A to G"}]}, {"molecule": "ecTadA(D108V)-XTEN-nCas9-NLS: ABE fusion protein, SEQ ID NO: 156", "values": [{"measurement": "activity on DNA, A to G editing", "setting": "[6]", "result": "ecTadA(D108V)-XTEN-nCas9-NLS: (mammalian construct, active on DNA, A to G"}]}]}
